US20240183860A1, “Chimeric ABC Transporters and Screening Methods” (Genentech, Inc., priority 2021, published 2024)
Bridge positions count the residues as written; N and C are the ends. Square brackets hold non-standard residues; d marks the D form. Peptide text beside a SMILES is read from it. Bip = N[C@@H](Cc1ccc(-c2ccccc2)cc1)C(=O)O; NMeF = CN[C@@H](Cc1ccccc1)C(=O)O; NMeA = CN[C@@H](C)C(=O)O; Sar = CNCC(=O)O

Legend:
E. coli MsbA (EcMsbA) = target: T1, E. coli MsbA (EcMsbA) (Escherichia coli, UniProt P60752); assay: MsbA ATPase assay (Transcreener ADP2 FP); format: biochemical
T1 construct: FLAG (N); made in house; host or cells: E. coli (strain for the WT protein not restated)
Experimental: (§1) The ATPase activity of MsbA was measured using a Transcreener ADP2 FP Assay (BellBrook Labs). […] The final condition for the reaction was MsbA enzyme, 50 μM ATP in 50 mM Tris pH 7.5, 10 mM MgCl2, 1% glycerol, 0.1% bovine gamma globulin, 1 mM dithiothreitol (DTT), 0.007% Brij-35 and 0.5% dimethylsulfoxide (DMSO). The following concentrations were used for each MsbA variant: 5 nM of EcMsbA, EnMsbA, KpMsbA and 80 nM PaMsbA reconstituted in amphipol, 15 nM EcMsbA and EcMsbA-chim5 in LMNG detergent, 22 nM EcMsbA and 27 nM EcMsbA-12G7 complex in aDDM detergent. The enzyme reaction was incubated for 1 hour at room temperature, then quenched by adding the Transcreener Detection Buffer. The IC50 was determined by fitting the inhibition dose-response curve with a nonlinear four-parameter inhibition model (GraphPad Prism).

[1] = system: imp E. coli (lptD(imp4213)), E. coli MsbA; assay: Broth MIC assay; format: cell-based, Escherichia coli; conditions: Table 5 prints no unit; μM
Experimental: Broth MICs were determined in cation-adjusted Mueller-Hinton broth with 0.002% Tween-80, as previously described (Ho et al., 2018).

[2] = target: T2, Pseudomonas aeruginosa MsbA (PaMsbA) (Pseudomonas aeruginosa, UniProt Q9HUG8); assay: MsbA ATPase assay, amphipol-reconstituted homologue; format: biochemical
T2 construct: FLAG; made in house; host or cells: not restated ('similarly expressed')
T2 sequence (Q9HUG8 1-603): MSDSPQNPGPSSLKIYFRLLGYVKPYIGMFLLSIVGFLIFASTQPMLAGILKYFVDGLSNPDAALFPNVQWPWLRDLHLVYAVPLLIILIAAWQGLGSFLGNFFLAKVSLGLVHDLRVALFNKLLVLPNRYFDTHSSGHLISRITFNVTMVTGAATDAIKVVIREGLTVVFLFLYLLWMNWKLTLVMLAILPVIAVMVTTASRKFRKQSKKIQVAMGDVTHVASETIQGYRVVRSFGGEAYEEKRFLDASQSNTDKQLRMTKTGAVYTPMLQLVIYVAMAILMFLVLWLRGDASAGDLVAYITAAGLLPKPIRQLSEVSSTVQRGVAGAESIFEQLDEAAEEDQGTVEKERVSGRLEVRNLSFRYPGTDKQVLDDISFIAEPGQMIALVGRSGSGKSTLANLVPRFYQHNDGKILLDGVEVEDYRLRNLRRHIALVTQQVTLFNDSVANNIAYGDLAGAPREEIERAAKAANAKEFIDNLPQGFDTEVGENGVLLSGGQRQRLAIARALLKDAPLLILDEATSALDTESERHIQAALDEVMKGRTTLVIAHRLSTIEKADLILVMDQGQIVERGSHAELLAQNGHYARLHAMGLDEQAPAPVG
Experimental: as §1

[3] = target: T3, EcMsbA-chim5 (MsbA-chimera5) (Escherichia coli, UniProt P60752, D53T/D54Y/D60K/DEL268-292/DEL57-57/F265A/G55I/I169L/INS266IAYAGNRVIHEDMRSGALIAFIAAL/INS66P/K49D/K58D/L171A/L263V/L51V/L52I/M159V/M67L/P68V/S164D/S62H/T59E/V63D/Y163E); assay: biochemical; format: biochemical
T3 construct: FLAG (N); made in house; host or cells: E. coli Rosetta 2 (DE3), pET-52b vector
Experimental: as §1

[4] = system: WT E. coli cells with an intact outer membrane (CFT073, UPEC WT); assay: Cellular IC50 determination (BacTiter-Glo, 6 hours); format: cell-based, Escherichia coli
Experimental: The cellular IC50's of various bacterial strains (Table 2) were determined.
200 nL aliquots of eight 2-fold dilutions of each compound were dispensed in duplicate into 384-well plates using an Echo Liquid Handler (Labcyte). Strains were grown in cation-adjusted Mueller Hinton Broth with 0.002% Tween overnight for 16 hours, washed with PBS, resuspended at OD600=1 in cation-adjusted Mueller Hinton Broth with 0.002% Tween and 10% glycerol, and frozen in […] aliquots. For each experiment, aliquots were thawed on ice and diluted 1:1000 into cation-adjusted Mueller Hinton Broth with 0.002% Tween. 10 μL cells/well were added to 384-well plates containing compound. Plates were incubated for 6 hours at 37° C., then 10 μL BacTiter-Glo reagent (Promega) was added to each well and luminescence was measured. IC50's were calculated using Genedata Screener software.

[5] = target: T4, EcMsbA-chim5 (MsbA-chimera5) (Escherichia coli, UniProt P60752, D53T/D54Y/D60K/DEL268-292/DEL57-57/F265A/G55I/I169L/INS266[…]/INS66P/K49D/K58D/L171A/L263V/L51V/L52I/M159V/M67L/P68V/S164D/S62H/T59E/V63D/Y163E); assay: biochemical; format: biochemical; conditions: ATPase; FIGS. 11D-E
T4 construct: FLAG (N); made in house; host or cells: E. coli Rosetta 2 (DE3), pET-52b vector
Experimental: as §1

[6] = target: T5, E. coli MsbA-chimera5 (chimera of Escherichia coli MsbA and Magnetospira strain-QH-2 MsbA), P60752; assay: cell-based or functional assay
T5 chain: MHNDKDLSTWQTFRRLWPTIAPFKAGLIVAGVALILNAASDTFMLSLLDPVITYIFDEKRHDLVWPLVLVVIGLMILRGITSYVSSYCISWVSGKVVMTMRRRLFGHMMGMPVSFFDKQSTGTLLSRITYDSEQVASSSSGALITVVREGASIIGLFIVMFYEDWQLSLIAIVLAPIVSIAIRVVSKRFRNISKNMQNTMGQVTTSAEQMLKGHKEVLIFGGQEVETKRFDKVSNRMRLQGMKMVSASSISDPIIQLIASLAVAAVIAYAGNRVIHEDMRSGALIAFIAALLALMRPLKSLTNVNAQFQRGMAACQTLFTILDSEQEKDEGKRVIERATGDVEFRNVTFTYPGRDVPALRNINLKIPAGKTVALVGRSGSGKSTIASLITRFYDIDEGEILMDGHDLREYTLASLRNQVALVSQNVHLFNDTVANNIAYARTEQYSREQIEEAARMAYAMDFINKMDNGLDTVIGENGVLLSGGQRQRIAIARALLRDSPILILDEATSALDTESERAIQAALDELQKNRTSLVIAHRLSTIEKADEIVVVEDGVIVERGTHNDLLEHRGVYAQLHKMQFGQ

[7] = target: T6, Escherichia coli MsbA (wild-type) (Escherichia coli), P60752; assay: cell-based or functional assay
T6 chain: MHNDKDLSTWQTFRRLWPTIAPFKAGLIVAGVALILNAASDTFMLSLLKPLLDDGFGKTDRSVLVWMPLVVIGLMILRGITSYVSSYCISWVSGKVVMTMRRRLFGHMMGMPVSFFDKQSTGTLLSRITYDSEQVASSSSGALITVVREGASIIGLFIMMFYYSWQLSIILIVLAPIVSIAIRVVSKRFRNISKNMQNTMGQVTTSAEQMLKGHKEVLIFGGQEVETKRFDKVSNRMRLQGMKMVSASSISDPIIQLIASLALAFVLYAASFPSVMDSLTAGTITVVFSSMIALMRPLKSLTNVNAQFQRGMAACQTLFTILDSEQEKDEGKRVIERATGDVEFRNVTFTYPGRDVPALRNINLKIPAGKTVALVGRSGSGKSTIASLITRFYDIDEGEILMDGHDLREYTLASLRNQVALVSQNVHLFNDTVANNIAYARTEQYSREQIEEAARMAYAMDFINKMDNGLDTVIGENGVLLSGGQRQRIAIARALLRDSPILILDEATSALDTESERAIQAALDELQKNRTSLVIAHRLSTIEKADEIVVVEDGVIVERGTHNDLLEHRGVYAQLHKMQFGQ

[8] = target: Enterobacter cloacae MsbA (Enterobacter cloacae); assay: cell-based or functional assay
[9] = target: T7, Pseudomonas aeruginosa MsbA (Pseudomonas aeruginosa), Q9HUG8; assay: cell-based or functional assay
T7 chain: T2 sequence (Q9HUG8 1-603)

[10] = target: Klebsiella pneumoniae MsbA (Klebsiella pneumoniae); assay: cell-based or functional assay
[11] = IC50 for inhibition of ATPase activity of MsbA, experiment of FIG. 3F / b233

CC(C)C[C@@H]1NC(=O)CNC(=O)[C@H](Cc2c[nH]c3ccccc23)NC(=O)[C@H](C)N(C)C(=O)[C@H](Cc2c[nH]c3ccccc23)NC(=O)[C@H](CC(C)C)NC(=O)[C@H](Cc2ccc(O)cc2)NC(=O)[C@H](CCCNC(=N)N)NC(=O)[C@H](Cc2ccccc2)NC(=O)CSC[C@@H](C(N)=O)NC(=O)[C@H](CC(N)=O)NC(=O)[C@H](CC(=O)O)NC(=O)[C@H](Cc2c[nH]c3ccccc23)NC(=O)[C@H](C(C)C)NC1=O [Compound G1122] ({CH2CO}-FRYLW[NMeA]WGLVWDNC-NH2; thioether N-14)
IC50 (E. coli MsbA (EcMsbA); [11]): 2 nM

CC(C)C[C@@H]1NC(=O)[C@H](Cc2c[nH]c3ccccc23)NC(=O)[C@H](Cc2c[nH]c3ccccc23)NC(=O)[C@H](Cc2ccccc2)NC(=O)CSC[C@@H](C(N)=O)NC(=O)[C@H](C(C)C)NC(=O)[C@H](Cc2ccccc2)N(C)C(=O)[C@H](Cc2c[nH]c3ccccc23)NC(=O)[C@H](Cc2c[nH]c3ccccc23)NC(=O)[C@H](CC(=O)O)NC(=O)CN(C)C(=O)[C@H](CC(=O)O)NC(=O)[C@H](CO)NC(=O)[C@H](Cc2c[nH]c3ccccc23)NC1=O [Compound G1119] ({CH2CO}-FWWLWSD[Sar]DWW[NMeF]VC-NH2; thioether N-14)
IC50 (E. coli MsbA (EcMsbA); [11]): 5 nM

CC(C)[C@@H]1NC(=O)[C@H](CCCNC(=N)N)NC(=O)[C@H](Cc2ccccc2)N(C)C(=O)[C@H](Cc2ccc(-c3ccccc3)cc2)NC(=O)[C@H](Cc2ccc(O)cc2)NC(=O)[C@H](C(C)C)NC(=O)[C@H](Cc2ccccc2)NC(=O)CSC[C@@H](C(N)=O)NC1=O [Compound G1365, ClAc-FVYBphMeFRVCNH2] ({CH2CO}-FVY[Bip][NMeF]RVC-NH2; thioether N-8)
IC50 (E. coli MsbA (EcMsbA); ATPase inhibitory activity on WT EcMsbA, IC50, purified WT EcMsbA, FIG. 3D): 1300 nM
IC50 (E. coli MsbA (EcMsbA); biochemical IC50, FIGS. 3G-L, 8-10 mer macrocycle series experiment): 300 nM
imp Strain MICs: imp, E.coli MsbA [1]: 12.5 µM
IC50 [2]: 7600 nM
IC50 [3]: > 5000 nM
EC50 ([4]; dose response on imp MsbAWT, imp MsbA High and UPEC WT, b248: EC50 for wild-type E. coli cells, read-out: EC50, FIGS. 3G-L): 20000 nM
IC50 ([4]; over the course of 6 hours, read-out: IC50, inhibition of growth of WT E. coli cells with an intact outer membrane): ~20000 nM

CC1CCN(CC(=O)Nc2ccc(C#N)nc2C(=O)c2ncccc2F)CC1 [Compound G758, N-(6-cyano-2-(3-fluoropicolinoyl)pyridin-3-yl)-2-(4-methylpiperidin-1-yl)acetamide, reference compound]
sensitivity of MsbA-chim5 to previously identified small-molecule inhibitors [5]: displayed sensitivity

FWWLWDDVSWWFVC (modifications not checked) [G1118]
IC50, ATPase activity of purified MsbA-chim5 [6]: > 5000 nM
fold lower potency than on EcMsbA (ATPase) [6]: > 30 fold
IC50, ATPase activity of purified EcMsbA [7]: 110 nM
IC50 for inhibition of ATPase activity of MsbA [7]: 5 nM
minimum inhibitory concentration (MIC), E. coli cells with the lptD(imp4213) allele [7]: 210 µg/mL
IC50, ATPase activity [8]: 240 nM
IC50, ATPase activity [9]: 3100 nM
IC50, ATPase activity [10]: 120 nM
